Data published in PubChem BioAssay AID330 (DTP/NCI, 2004).
Toxic doses and inconclusive results are not listed. How the source made its calls: active means survival T/C of 150% or more; inactive means T/C below 125% in these data.

Test system: P388 leukemia ip, CD2F1 mice, survival T/C
Assay: NCI In Vivo Anticancer Drug Screen. Data for tumor model P388 Leukemia (intraperitoneal) in CD2F1 (CDF1) mice
Settings: endpoint: median survival time, higher = longer survival
Summary of the method: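 Mice carrying the transplanted tumor received test compound or vehicle. Survival was recorded in each group, and the value is the treated-group measurement divided by that of the vehicle-treated control group.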

[1] = dose: 50.0 mg/kg/injection, schedule: Q01DX009 (ip), vehicle: Klucel (hydroxypropylcellulose) (HPC)
[2] = dose: 100.0 mg/kg/injection, schedule: Q01DX009 (ip), vehicle: Klucel (hydroxypropylcellulose) (HPC)
[3] = dose: 200.0 mg/kg/injection, schedule: Q01DX009 (ip), vehicle: Klucel (hydroxypropylcellulose) (HPC)

Measured: T/C

O=C(CCCN1CCC(O)(c2cccc(C(F)(F)F)c2)CC1)c1ccc(F)cc1
inactive: dose: 18.75 mg/kg/injection, schedule: Q04DX003 (ip), vehicle: Klucel (hydroxypropylcellulose) (HPC) 108 % of control | dose: 37.5 mg/kg/injection, schedule: Q04DX003 (ip), vehicle: Klucel (hydroxypropylcellulose) (HPC) 112 % of control | dose: 75.0 mg/kg/injection, schedule: Q04DX003 (ip), vehicle: Klucel (hydroxypropylcellulose) (HPC) 88 % of control

COc1cc2c3cc1Oc1c(OC)c(OC)cc4c1C(Cc1ccc(O)c(c1)-c1cc(ccc1OC)CC3N(C)CC2)N(C)CC4 (stereo unspecified)
inactive: dose: 0.78 mg/kg/injection, schedule: Q01DX009 (ip), vehicle: Klucel (hydroxypropylcellulose) (HPC) 106 % of control | dose: 1.56 mg/kg/injection, schedule: Q01DX009 (ip), vehicle: Klucel (hydroxypropylcellulose) (HPC) 87 % of control | dose: 3.13 mg/kg/injection, schedule: Q01DX009 (ip), vehicle: Klucel (hydroxypropylcellulose) (HPC) 104 % of control | dose: 6.25 mg/kg/injection, schedule: Q01DX009 (ip), vehicle: Klucel (hydroxypropylcellulose) (HPC) 104 % of control

CCCN(CCC)CC(C)O (stereo unspecified)
inactive: dose: 25.0 mg/kg/injection, schedule: Q01DX009 (ip), vehicle: saline 95 % of control | dose: 50.0 mg/kg/injection, schedule: Q01DX009 (ip), vehicle: saline 100 % of control | dose: 100.0 mg/kg/injection, schedule: Q01DX009 (ip), vehicle: saline 95 % of control

Cn1c(=O)c2cc(C(N)=O)c(=O)oc2n(C)c1=O
inactive: dose: 62.5 mg/kg/injection, schedule: Q01DX001 (ip), vehicle: Klucel (hydroxypropylcellulose) (HPC) 109 % of control | dose: 125.0 mg/kg/injection, schedule: Q01DX001 (ip), vehicle: Klucel (hydroxypropylcellulose) (HPC) 110 % of control | dose: 250.0 mg/kg/injection, schedule: Q01DX001 (ip), vehicle: Klucel (hydroxypropylcellulose) (HPC) 114 % of control

CCCCCCCCCCCCCCCCCCSC1=CC(=O)c2ccccc2C1=O
inactive: dose: 3.13 mg/kg/injection, schedule: Q01DX009 (ip), vehicle: saline with Tween-80 95 % of control | dose: 6.25 mg/kg/injection, schedule: Q01DX009 (ip), vehicle: saline with Tween-80 95 % of control | dose: 12.5 mg/kg/injection, schedule: Q01DX009 (ip), vehicle: saline with Tween-80 90 % of control | dose: 25.0 mg/kg/injection, schedule: Q01DX009 (ip), vehicle: saline with Tween-80 89 % of control | dose: 50.0 mg/kg/injection, schedule: Q01DX009 (ip), vehicle: saline with Tween-80 97 % of control

C=C(C[P+](c1ccccc1)(c1ccccc1)c1ccccc1)C(=O)OCC
inactive: dose: 3.12 mg/kg/injection, schedule: Q01DX001 (ip), vehicle: saline 111 % of control | dose: 6.25 mg/kg/injection, schedule: Q01DX001 (ip), vehicle: saline 109 % of control | dose: 12.5 mg/kg/injection, schedule: Q01DX001 (ip), vehicle: saline 113 % of control | dose: 12.5 mg/kg/injection, schedule: Q01DX001 (ip), vehicle: suspension in saline 117 % of control

COC(=O)C1CC2C(=O)N(C)C=CC12 (stereo unspecified)
inactive: dose: 100.0 mg/kg/injection, schedule: Q04DX002 (ip), vehicle: saline with Tween-80 104 % of control | dose: 200.0 mg/kg/injection, schedule: Q04DX002 (ip), vehicle: saline with Tween-80 98 % of control | dose: 400.0 mg/kg/injection, schedule: Q04DX002 (ip), vehicle: saline with Tween-80 102 % of control

CCOC(=O)/C=C(\C)NCCSSCCN/C(C)=C/C(=O)OCC
inactive: [1] 100 % of control | [2] 97 % of control | [3] 90 % of control

CCCCN(CCCC)CCCC(C(C)=O)C(=O)OCC (stereo unspecified)
inactive: dose: 50.0 mg/kg/injection, schedule: Q01DX005 (ip), vehicle: Klucel (hydroxypropylcellulose) (HPC) 102 % of control | dose: 100.0 mg/kg/injection, schedule: Q01DX005 (ip), vehicle: Klucel (hydroxypropylcellulose) (HPC) 104 % of control

CCNC1(c2ccccc2)CCCCC1
inactive: dose: 6.25 mg/kg/injection, schedule: Q04DX003 (ip), vehicle: saline 121 % of control | dose: 12.5 mg/kg/injection, schedule: Q04DX003 (ip), vehicle: saline 106 % of control | dose: 25.0 mg/kg/injection, schedule: Q04DX003 (ip), vehicle: saline 104 % of control

COc1ccc(CCN2C(=O)C(=O)N(c3ccc(Cl)c(Cl)c3)C2=O)cc1OC
inactive: [1] 102 % of control | [2] 97 % of control | [3] 103 % of control
